For test [1], the system named is PC-3 prostate adenocarcinoma cells. Briefly: In vitro cytotoxicity (MTT assay), PC-3. In kind it is cell-based, human. The following applies: ± standard deviation, triplicate. As for the experimental part: (§1) The testing was performed on the ovarian carcinoma (A2780), Cisplatin-resistant ovarian carcinoma (A2780R), prostate adenocarcinoma (PC-3), prostate carcinoma (22Rv1), and leukemia monocytic (THP-1) and intestinal colon adenocarcinoma (LS180) human cell lines that were obtained from the ATCC collection of cell lines and cultivated according to the producer’s instructions. The reference normal cell line of human fetal fibroblasts (MRC-5) was obtained from the same commercial source and maintained according to the producer’s instructions. The half-maximal inhibitory concentrations (IC50) were calculated from dose–response curves by means of the GraphPad Prism 6 software (GraphPad Software, San Diego, CA, USA).
(Tetrazolium assays rely on reduction of a dye to a coloured formazan, in cell work by metabolically active cells.)

Another test deals with NF-κB. Briefly: NF-κB activity in LPS-challenged cells (SEAP reporter). In kind it is cell-based, human. The following applies: 100 nM, 1 h pre-treatment, LPS 24 h, THP1-Blue NF-κB monocytes. The method, then:
The effect of the tested compounds to influence the function of transcription factor NF-κB was determined on lipopolysaccharide (LPS)-challenged THP1-Blue™ NF-κB cells as we described previously. […] After 24 h incubation, the activity of NF-κB was determined as the amount of secreted embryonic alkaline phosphatase using Quanti-Blue™ medium (Invivogen).

Another test concerns PPARγ. In words: Immunocytochemical analysis of PPARγ expression and localisation. In kind it is cell-based, human. The following applies: 100 nM, 1 h pre-treatment, LPS-stimulated THP1-Blue NF-κB macrophages. As for the experimental part:
THP1-Blue™ NF-κB cells were seeded onto a µ-Slide 8 Well (Ibidi; Gräfelfing, Germany) and differentiated into macrophages by […] (PMA) at the final concentration of 50 ng/mL, as was described previously.
Differentiated macrophages were washed by PBS and covered by fresh serum-free medium for 2 h. […] One hour later, the cells were challenged by LPS for 24 h. Then, the cells were washed by PBS and fixed by 4% paraformaldehyde dissolved in PBS for 10 min. Cell permeabilization and blocking of free binding sites were performed by 0.1% (v/v) Triton X100 and 5% (w/v) bovine serum albumin (BSA) dissolved in PBS for 1 h at room temperature. After that, cells were washed by PBS with 0.1% (v/v) Tween 20 and covered by fresh PBS with 5% BSA and 0.1% Tween 20 containing Alexa Fluor® 546-labelled anti-PPARγ antibody diluted 1:100 (catalogue number sc-7273; Santa Cruz Biotechnology; Dallas, TX, USA) for a further 24 h. Then, cells were washed by PBS with 0.1% Tween 20 and incubated with Hoechst stain diluted 1:2000 for 10 min. The remaining stain was washed out by PBS and covered by fresh PBS for further microscope analysis. The confocal microscope Leica TCS SP8 MP (Leica Microsystems, Mannheim, Germany) was used for obtaining the images for the immunocytochemical analysis of PPARγ expression and localization.

The subject of the next test is caspases 3/7. In words: Caspase 3/7 activation (flow cytometry). In kind it is cell-based, human. The following applies: A2780, half-cytotoxic concentration, 24 h. As for the experimental part: (§2) The induction of cell death by complex (1) was studied by two methods in the A2780 cell line. Firstly, the induction of apoptosis was tested using an Annexin V-FITC/PI commercial kit (V13242, Thermo Fisher Scientific, USA). Second, caspase 3/7 activation was monitored using the CellEvent™ Caspase-3/7 Green Flow Cytometry Assay Kit (C10427, Thermo Fisher Scientific, USA). Both assays were performed according to the manufacturers’ protocols with one modification in the caspase induction assay: the use of CellEvent^TM Caspase-3/7 Green Detection Reagent was only for the detection of caspase 3/7 activation. The general procedure was as follows: 5 × 10^4 cells per well were seeded in a 24-well cell culture plate, and after 24 h, the cells were treated with 4 µM solution of complex (1) and cultivated for next 24 h. […] The trypsin was blocked by adding the cell culture medium to a final volume of 500 µL, and the resulting cell suspensions were divided into two separate 250 µL aliquots. The first set of aliquots was used to evaluate the Annexin V-FITC/PI assay, whilst the second one was used for the caspase 3/7 activation assay. Both assays were performed using a BD FACSVerse flow cytometer (Becton Dickinson, USA) in three independent experiments, each performed in duplicate.
(In general: Flow cytometry measures light scatter and fluorescence of single cells or particles in a stream.)

Another test relates to A2780 cells. Briefly: Induction of apoptosis, Annexin V-FITC/PI staining. In kind it is cell-based, human. The following applies: A2780, half-cytotoxic concentration, 24 h. As for the experimental part:
as §2

The test system of test [2] is human cancer cell lines (A2780, A2780R, PC-3, 22Rv1, and THP-1). In words: In vitro cytotoxicity, summary statements over the panel of cell lines. In kind it is cell-based. The following applies: IC50 for normal cell line/IC50 for cancerous cell line. As for the experimental part:
as §1

`[Cl][Au].c1ccc(P(c2ccccc2)c2ccccc2)cc1` [[Au(PPh3)Cl]] returned an IC50 in test [1] of 9.9 ± 0.4 µM. For the same molecule, the “Effect on LPS-stimulated NF-κB activity” value in the test on NF-κB is given as “possessed some activity”. Besides, the “Effect on the amount of PPARγ” value in the test with PPARγ is “did not show this effect”. In addition, the “Cells with active executioner caspases 3/7” value in the test with caspases 3/7 is “around 50%”. Also, in the test with A2780 cells, the “Cells in early stage apoptosis (Annexin V+/PI-)” value is given as “around 10%” and the “Cells in late stage apoptosis (Annexin V+/PI+)” value is “around 30%”.

Take `CC[PH](CC)(CC)[Au][S][C@@H]1O[C@H](COC(C)=O)[C@@H](OC(C)=O)[C@H](OC(C)=O)[C@H]1OC(C)=O` [Auranofin, [3,4,5-triacetyloxy-6-(acetyloxymethyl)-oxane-2-thiolate-(triethylphosphine)gold(I)]]: the “selectivity index (SI)” value in test [2] was “around 1”. In test [1], this molecule had an IC50 of 3.7 ± 0.7 µM. Besides, in the test on NF-κB, the “Effect on LPS-stimulated NF-κB activity” value was “the only gold(I) complex able to inhibit the activity of pro-inflammatory transcription factor NF-κB”. The “Activation of caspases 3/7” value in the test on caspases 3/7 is recorded as “the most effective gold(I) complex”. In addition, in the test on A2780 cells, the “Cells in late stage apoptosis (Annexin V+/PI+)” value was “around 80%”.

In general, IC50 refers to the concentration at which inhibition is half-maximal. A higher IC50 goes with weaker potency.

For the origin of these results see publication PMC9916778 (International Journal of Molecular Sciences, 2023).
